Data on 4 molecules can be found in ChEMBL document CHEMBL3826874, “Exploring new scaffolds for angiotensin II receptor antagonism” (Bioorg Med Chem, 2016).

The target in assay [1] is T1, Type-1 angiotensin II receptor (Homo sapiens, UniProt P30556).
T1 sequence (P30556 whole entry): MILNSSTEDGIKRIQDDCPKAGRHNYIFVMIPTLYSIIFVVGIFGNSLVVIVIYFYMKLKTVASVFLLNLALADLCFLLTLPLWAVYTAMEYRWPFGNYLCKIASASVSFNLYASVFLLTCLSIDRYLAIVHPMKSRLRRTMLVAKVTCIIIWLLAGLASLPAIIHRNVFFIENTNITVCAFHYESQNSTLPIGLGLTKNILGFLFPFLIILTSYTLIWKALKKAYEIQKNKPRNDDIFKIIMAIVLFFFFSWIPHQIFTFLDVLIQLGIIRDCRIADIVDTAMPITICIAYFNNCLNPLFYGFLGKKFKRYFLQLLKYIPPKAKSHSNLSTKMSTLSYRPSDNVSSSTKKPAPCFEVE
Briefly: (§1) Displacement of [125I-Sar1-Ile8]Ang2 from human AT1 receptor expressed in HEK293 cell membrane incubated for 1 hr by gamma counting method. The format is cell membranes.

Assay [2] concerns the target T2, Type-1 angiotensin II receptor (Homo sapiens) (UniProt P30556).
T2 sequence (whole entry): T1 sequence (P30556 whole entry)
Described as §1. In kind it is cell membranes.

As for `CN(Cc1cn(-c2ccccc2)nc1-c1ccc(Cl)cc1)C(=O)CCC(=O)O`, in assay [1] (read-out: IC50), the IC50 worked out at 199 nM. In addition, the inhibition result in assay [2] was “Dose-dependent effect”.
Take `CN(Cc1cn(-c2ccccc2)nc1-c1ccc(F)cc1)C(=O)CCC(=O)O`: in assay [1] (read-out: pIC50 (converted)), the IC50 was 2570 nM. For the same molecule, the inhibition entry in assay [2] was “Dose-dependent effect”.
On the same counts, the results for `Cc1ccc(C)c(NC(=O)CN(C)C(=O)c2ccc(S(=O)(=O)N3CCCCCC3)cc2)c1` are 2190 nM and “Dose-dependent effect”.
Turning to `Cc1ccc(CN(c2ccc(C(=O)NCc3ccccn3)cc2)S(C)(=O)=O)cc1`, the IC50 in assay [1] (read-out: pIC50 (converted)) was 2090 nM. The inhibition result in assay [2] was “Dose-dependent effect”.
